The structures appear in SMILES notation. “And” between values parts separate entries of the source, which are not always exact repeats. Equal entries are not always repeated. Toxic doses and inconclusive results are not listed.

For this experiment, the system named is BDF1 mice, P288 leukemia ip, survival T/C. The experiment in a line: NCI In Vivo Anticancer Drug Screen. Data for tumor model P288 Lymphocytic Leukemia (intraperitoneal) in B6D2F1 (BDF1) mice. Particulars: endpoint: survival time, mean or median, higher = longer survival. As for the experimental part: The antitumor activity of compounds was measured in mice bearing transplantable tumors. Survival or tumor size were measured and the results are expressed as the measurement made in the treated group (T) divided by the measurement made in the vehicle treated control group (C). The tumor model used in this assay is P288 Lymphocytic Leukemia (intraperitoneal) in B6D2F1 (BDF1) mice

[1] abbreviates: dose: 2.0 mg/kg/injection, schedule: Q01DX010 (ip), vehicle: saline.
The mark [2] stands for this setting: dose: 4.0 mg/kg/injection, schedule: Q01DX010 (ip), vehicle: saline.
Setting [3] is: dose: 0.5 mg/kg/injection, schedule: Q01DX010 (ip), vehicle: saline.
Where [4] appears, read: dose: 1.0 mg/kg/injection, schedule: Q01DX010 (ip), vehicle: saline.
The mark [5] stands for this setting: dose: 10.0 mg/kg/injection, schedule: Q01DX010 (ip), vehicle: saline.
Where [6] appears, read: dose: 20.0 mg/kg/injection, schedule: Q01DX010 (ip), vehicle: saline.
The mark [7] stands for this setting: dose: 40.0 mg/kg/injection, schedule: Q01DX010 (ip), vehicle: saline.
[8] abbreviates: dose: 5.0 mg/kg/injection, schedule: Q01DX010 (ip), vehicle: saline.

`CC(CCC(C)OS(C)(=O)=O)OS(C)(=O)=O` (stereo not given): the T/C is 100 % of control (dose: 0.63 mg/kg/injection, schedule: Q01DX Z (ip), vehicle: carboxymethylcellulose (CMC)); 88 % of control (dose: 1.25 mg/kg/injection, schedule: Q01DX Z (ip), vehicle: carboxymethylcellulose (CMC)); 90 % of control under setting [1]; 105 % of control (dose: 2.5 mg/kg/injection, schedule: Q01DX Z (ip), vehicle: carboxymethylcellulose (CMC)); 90 % of control under setting [2]; 114 % of control (dose: 5.0 mg/kg/injection, schedule: Q01DX Z (ip), vehicle: carboxymethylcellulose (CMC)). Also, the T/C is, setting by setting: (dose: 8.0 mg/kg/injection, schedule: Q01DX010 (ip), vehicle: saline) 100 % of control; (dose: 10.0 mg/kg/injection, schedule: Q01DX Z (ip), vehicle: carboxymethylcellulose (CMC)) 107 % of control; (dose: 16.0 mg/kg/injection, schedule: Q01DX010 (ip), vehicle: saline) 104 % of control and 105 % of control and 90 % of control; (dose: 20.0 mg/kg/injection, schedule: Q01DX Z (ip), vehicle: carboxymethylcellulose (CMC)) 90 % of control.
For the compound `COc1cc2c(c(OC)c1OC)-c1ccc(N)c(=O)cc1[C@@H](NC(C)=O)CC2`, the T/C reads like this: under setting [3], 157 % of control; under setting [4], 164 % of control and 214 % of control; under setting [1], 176 % of control and 242 % of control; under setting [2], 100 % of control.
Take `CC1CCOS(=O)O1` (stereo not given): the T/C reads like this: under setting [5], 88 % of control; under setting [6], 100 % of control; under setting [7], 100 % of control.
`[N-]=[N+]=CC(=O)NCC(=O)NN`: the T/C reads like this: (dose: 125.0 mg/kg/injection, schedule: Q01DX Z (ip), vehicle: other) 96 % of control; (dose: 250.0 mg/kg/injection, schedule: Q01DX Z (ip), vehicle: other) 98 % of control; (dose: 500.0 mg/kg/injection, schedule: Q01DX Z (ip), vehicle: other) 92 % of control.
Consider `COc1cc2c(c(OC)c1OC)-c1ccc(OC)c(=O)cc1[C@@H](NC(C)=O)CC2`, for which, where the note is “dose: 0.12 mg/kg/injection, schedule: Q01DX Z (ip), vehicle: saline”, the T/C is 109 % of control.
On to `CCCNc1ncnc2[nH]ncc12`, for which the T/C is 94 % of control (dose: 0.31 mg/kg/injection, schedule: Q01DX Z (ip), vehicle: water); 90 % of control (dose: 0.63 mg/kg/injection, schedule: Q01DX Z (ip), vehicle: water); 108 % of control and 114 % of control (dose: 2.5 mg/kg/injection, schedule: Q01DX Z (ip), vehicle: water); 112 % of control (dose: 5.0 mg/kg/injection, schedule: Q01DX Z (ip), vehicle: water); 106 % of control and 91 % of control (dose: 10.0 mg/kg/injection, schedule: Q01DX Z (ip), vehicle: water); 108 % of control (dose: 20.0 mg/kg/injection, schedule: Q01DX Z (ip), vehicle: water). For the same compound, the T/C (dose: 40.0 mg/kg/injection, schedule: Q01DX Z (ip), vehicle: water) was 103 % of control.
As for `C1CN1c1nc(N2CC2)nc(N2CC2)n1`, the T/C by setting is: (dose: 0.13 mg/kg/injection, schedule: Q01DX010 (ip), vehicle: saline) 88 % of control; (dose: 0.25 mg/kg/injection, schedule: Q01DX010 (ip), vehicle: saline) 105 % of control and 88 % of control; under setting [3], 111 % of control and 95 % of control; under setting [4], 94 % of control.
`O=C(O)CCCc1ccc(N(CCCl)CCCl)cc1`: the T/C (dose: 3.1 mg/kg/injection, schedule: Q01DX Z (ip), vehicle: carboxymethylcellulose (CMC)) is 110 % of control; the T/C (dose: 3.13 mg/kg/injection, schedule: Q01DX010 (ip), vehicle: saline) was 88 % of control; the T/C (dose: 6.25 mg/kg/injection, schedule: Q01DX010 (ip), vehicle: saline) is 100 % of control; the T/C (dose: 6.25 mg/kg/injection, schedule: Q01DX Z (ip), vehicle: carboxymethylcellulose (CMC)) was 90 % of control; the T/C (dose: 12.5 mg/kg/injection, schedule: Q01DX010 (ip), vehicle: saline) is 100 % of control; the T/C (dose: 12.5 mg/kg/injection, schedule: Q01DX Z (ip), vehicle: carboxymethylcellulose (CMC)) is 106 % of control. The T/C (dose: 25.0 mg/kg/injection, schedule: Q01DX Z (ip), vehicle: carboxymethylcellulose (CMC)) was 114 % of control and 88 % of control.
In the case of `COc1ccc2c(c1OC)C(=O)O[C@@H]2[C@H]1c2c(cc3c(c2OC)OCO3)CCN1C`, the T/C is 112 % of control (dose: 3.9 mg/kg/injection, schedule: Q01DX010 (ip), vehicle: saline); 112 % of control (dose: 7.8 mg/kg/injection, schedule: Q01DX010 (ip), vehicle: saline); 106 % of control (dose: 31.3 mg/kg/injection, schedule: Q01DX010 (ip), vehicle: saline).
Regarding `Cc1cc(N(CCCl)CCCl)ccc1N=Nc1ccccc1C(=O)O`, the T/C is 108 % of control (dose: 0.45 mg/kg/injection, schedule: Q01DX Z (ip), vehicle: carboxymethylcellulose (CMC)); 105 % of control (dose: 0.9 mg/kg/injection, schedule: Q01DX Z (ip), vehicle: carboxymethylcellulose (CMC)); 104 % of control (dose: 1.8 mg/kg/injection, schedule: Q01DX Z (ip), vehicle: carboxymethylcellulose (CMC)); 101 % of control (dose: 3.75 mg/kg/injection, schedule: Q01DX Z (ip), vehicle: carboxymethylcellulose (CMC)); 88 % of control and 90 % of control under setting [8]; 108 % of control (dose: 7.5 mg/kg/injection, schedule: Q01DX Z (ip), vehicle: carboxymethylcellulose (CMC)). Also, the T/C was 90 % of control and 94 % of control under setting [5]; 105 % of control and 90 % of control under setting [6]; 94 % of control under setting [7].
For `Oc1cc(CN(CCCl)CCCl)c(O)cc1CN(CCCl)CCCl`, the T/C reads like this: (dose: 0.63 mg/kg/injection, schedule: Q01DX010 (ip), vehicle: saline) 100 % of control; (dose: 1.25 mg/kg/injection, schedule: Q01DX010 (ip), vehicle: saline) 111 % of control and 100 % of control; (dose: 1.88 mg/kg/injection, schedule: Q01DX Z (sc), vehicle: steriod suspending solution) 87 % of control; (dose: 2.5 mg/kg/injection, schedule: Q01DX010 (ip), vehicle: saline) 105 % of control; (dose: 3.75 mg/kg/injection, schedule: Q01DX Z (sc), vehicle: steriod suspending solution) 104 % of control; under setting [8], 105 % of control and 116 % of control. Besides, the T/C under setting [5] was 95 % of control.
For `Nc1nc(F)nc2c1ncn2C1OC(CO)C(O)C1O` (stereo not given), the T/C under setting [3] is 111 % of control; the T/C under setting [4] is 100 % of control; the T/C under setting [1] was 88 % of control; the T/C under setting [2] was 88 % of control; the T/C (dose: 125.0 micrograms/kg/injection, schedule: Q01DX010 (ip), vehicle: saline) is 88 % of control; the T/C (dose: 500.0 micrograms/kg/injection, schedule: Q01DX010 (ip), vehicle: saline) is 111 % of control. Moreover, for the setting “dose: 1000.0 micrograms/kg/injection, schedule: Q01DX010 (ip), vehicle: saline”, the T/C is 116 % of control.

These data come from PubChem BioAssay AID216 (DTP/NCI, 2004).
